35 compounds from patent US8278345B2, “Inhibitors of glutaminyl cyclase” (Probiodrug AG, priority 2006, dated 2012) can be followed below.

Each structure is given as a SMILES string. Where two headings read alike, the source gives them in different places.

For the assay, the target named is hQC (Homo sapiens, UniProt Q16769). The assay is described as follows: Inhibitor assay for glutaminyl cyclase activity (fluorometric, H-Gln-βNA / H-Gln-AMC). Type of assay: biochemical. The procedure, abridged: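 Coupled fluorometric assay at 30 °C with pyroglutamyl aminopeptidase, in Tris/HCl pH 8.0 with EDTA, substrate H-Gln-βNA (0.2 mM; ex/em 320/410 nm) or H-Gln-AMC (ex/em 380/460 nm), initiated by QC. Screening: 4 mM inhibitor, substrate at 1 KM; Ki from progress curves fitted to competitive inhibition.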
Chain of hQC (Q16769 29-361): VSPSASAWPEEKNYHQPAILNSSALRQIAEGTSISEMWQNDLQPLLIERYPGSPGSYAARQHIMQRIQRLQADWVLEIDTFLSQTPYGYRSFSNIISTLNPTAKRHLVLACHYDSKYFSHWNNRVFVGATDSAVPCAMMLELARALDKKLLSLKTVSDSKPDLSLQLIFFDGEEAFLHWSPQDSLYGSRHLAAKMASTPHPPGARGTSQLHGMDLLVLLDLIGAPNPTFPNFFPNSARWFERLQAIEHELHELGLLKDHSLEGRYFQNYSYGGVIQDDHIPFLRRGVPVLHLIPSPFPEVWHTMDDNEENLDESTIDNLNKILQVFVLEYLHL

The mark [1] stands for this setting: compound from preparative synthesis, purified, read-out: IC50 hQC.

Regarding `CC1C(F)=C(O)C(=O)N1CCCn1ccnc1` (stereo not shown) [Compound 3, 4-Fluoro-3-hydroxy-1-(3-imidazol-1-yl-propyl)-5-methyl-1,5-dihydro-pyrrol-2-one], the IC50 (in general, the concentration that gives 50% inhibition) (read-out: IC50) is 8.5 µM.
Same read-out and setting: next, `CCCCCC1=C(O)C(=O)N(CCCn2ccnc2)C1C(O)CO` (stereo not shown) [Compound 189, 5-(1,2-Dihydroxy-ethyl)-3-hydroxy-1-(3-imidazol-1-yl-propyl)-4-pentyl-1,5-dihydro-pyrrol-2-one]: 0.4 µM; `CCCC(=O)C1=C(O)C(=O)N(c2ccc3[nH]cnc3c2)C1c1ccnc2ccccc12` (stereo not shown) [Compound 404, 1-(1H-Benzoimidazol-5-yl)-4-butyryl-3-hydroxy-5-quinolin-4-yl-1,5-dihydro-pyrrol-2-one]: 1.57 µM; `COc1ccc(C2C(c3cccc(O)c3)=C(O)C(=O)N2CCCn2ccnc2)cc1` (stereo not shown) [Compound 13, 3-Hydroxy-4-(3-hydroxy-phenyl)-1-(3-imidazol-1-yl-propyl)-5-(4-methoxy-phenyl)-1,5-dihydro-pyrrol-2-one]: 2.2 µM.
On to `CCCCCC1=C(O)C(=O)N(CCCn2ccnc2)C1c1cccs1` (stereo not shown) [Compound 210, 3-Hydroxy-1-(3-imidazol-1-yl-propyl)-4-pentyl-5-thiophen-2-yl-1,5-dihydro-pyrrol-2-one], for which the IC50 came out at 0.588 µM under setting [1] and 0.04 µM (read-out: IC50).
Consider `CCCCCC1=C(O)C(=O)N(CCCn2ccnc2)C1c1ccccc1` (stereo not shown) [Compound 199, 3-Hydroxy-1-(3-imidazol-1-yl-propyl)-4-pentyl-5-phenyl-1,5-dihydro-pyrrol-2-one], for which the half-inhibitory concentration (IC50) (read-out: IC50) was determined as 0.04 µM.
On the same count and under the same terms, the same measure for `O=C1C(O)=C(c2c[nH]c3ccccc23)C(c2ccc(O)c(Br)c2)N1c1ccc2[nH]cnc2c1` (stereo not shown) [Compound 438, 1-(1H-Benzoimidazol-5-yl)-5-(3-bromo-4-hydroxy-phenyl)-3-hydroxy-4-(1H-indol-3-yl)-1,5-dihydro-pyrrol-2-one]: 0.58 µM; for `CCC1=C(O)C(=O)N(CCCn2ccnc2)C1Cc1ccccc1` (stereo not shown) [Compound 242, 5-Benzyl-4-ethyl-3-hydroxy-1-(3-imidazol-1-yl-propyl)-1,5-dihydro-pyrrol-2-one]: 2.2 µM; for `CC1=C(O)C(=O)N(CCCn2ccnc2)C1c1ccc(O)cc1` (stereo not shown) [Compound 52, 3-Hydroxy-5-(4-hydroxy-phenyl)-1-(3-imidazol-1-yl-propyl)-4-methyl-1,5-dihydro-pyrrol-2-one]: 1.3 µM.
`CCCCCC1C(CC)=C(O)C(=O)N1CCCn1ccnc1` (stereo not shown) [Compound 232, 4-Ethyl-3-hydroxy-1-(3-imidazol-1-yl-propyl)-5-pentyl-1,5-dihydro-pyrrol-2-one]: the IC50 (read-out: IC50) was 0.04 µM.
On the same count and under the same terms, next, `Cc1cccc(C2C(C(=O)C3CC3)=C(O)C(=O)N2c2ccc3[nH]cnc3c2)n1` (stereo not shown) [Compound 316, 1-(1H-Benzoimidazol-5-yl)-4-cyclopropanecarbonyl-3-hydroxy-5-(6-methyl-pyridin-2-yl)-1,5-dihydro-pyrrol-2-one]: 0.58 µM; `O=C1C(O)=C(c2ccc(O)cc2)C(c2cccc(O)c2)N1CCCn1ccnc1` (stereo not shown) [Compound 182, 3-Hydroxy-5-(3-hydroxy-phenyl)-4-(4-hydroxy-phenyl)-1-(3-imidazol-1-yl-propyl)-1,5-dihydro-pyrrol-2-one]: 0.04 µM; `O=C(O)c1ccc(C2C(c3c[nH]c4ccccc34)=C(O)C(=O)N2c2ccc3[nH]cnc3c2)o1` (stereo not shown) [Compound 451, 5-[1-(1H-Benzoimidazol-5-yl)-4-hydroxy-3-(1H-indol-3-yl)-5-oxo-2,5-dihydro-1H-pyrrol-2-yl]-furan-2-carboxylic acid]: 2.56 µM.
Take `O=C1C(O)=C(c2ccccc2)C(c2ccc3[nH]ccc3c2)N1CCCn1ccnc1` (stereo not shown) [Compound 85, 3-Hydroxy-1-(3-imidazol-1-yl-propyl)-5-(1H-indol-5-yl)-4-phenyl-1,5-dihydro-pyrrol-2-one]: the IC50 by setting is: under setting [1], 0.64 µM; (read-out: IC50) 0.04 µM.
`CC1=C(O)C(=O)N(c2ccc3[nH]cnc3c2)C1c1ccc2cccc(O)c2n1` (stereo not shown) [Compound 319, 1-(1H-Benzoimidazol-5-yl)-3-hydroxy-5-(8-hydroxy-quinolin-2-yl)-4-methyl-1,5-dihydro-pyrrol-2-one]: the half-maximal inhibitory concentration (IC50) (read-out: IC50) stood at 2.83 µM.
For the compound `O=C1C(O)=C(c2ccc(O)cc2)C(c2cccc3cccnc23)N1c1ccc2[nH]cnc2c1` (stereo not shown) [Compound 364, 1-(1H-Benzoimidazol-5-yl)-3-hydroxy-4-(4-hydroxy-phenyl)-5-quinolin-8-yl-1,5-dihydro-pyrrol-2-one], the concentration for half-maximal inhibition (IC50) (read-out: IC50) came out at 5.08 µM.
Take `CCC1=C(O)C(=O)N(c2ccc3[nH]cnc3c2)C1c1cc(C)c(C)o1` (stereo not shown) [Compound 340, 1-(1H-Benzoimidazol-5-yl)-5-(4,5-dimethyl-furan-2-yl)-4-ethyl-3-hydroxy-1,5-dihydro-pyrrol-2-one]: where the note is “read-out: IC50”, the IC50 worked out at 3.37 µM.
Turning to `O=C(C1=C(O)C(=O)N(c2ccc3[nH]cnc3c2)C1c1ncc[nH]1)C1CCCCC1` (stereo not shown) [Compound 435, 1-(1H-Benzoimidazol-5-yl)-4-cyclohexanecarbonyl-3-hydroxy-5-(1H-imidazol-2-yl)-1,5-dihydro-pyrrol-2-one], the IC50 (read-out: IC50) is 6.97 µM.
Still for that read-out and setting: the same measure for `CCCC(=O)C1=C(O)C(=O)N(c2ccc3[nH]cnc3c2)C1c1cc[nH]n1` (stereo not shown) [Compound 378, 1-(1H-Benzoimidazol-5-yl)-4-butyryl-3-hydroxy-5-(1H-pyrazol-3-yl)-1,5-dihydro-pyrrol-2-one]: 4 µM; for `O=C(C1=C(O)C(=O)N(c2ccc3[nH]cnc3c2)C1c1ccc(Cl)c(C(F)(F)F)c1)c1cc2ccccc2s1` (stereo not shown) [Compound 257, 4-(Benzo[b]thiophene-2-carbonyl)-1-(1H-benzoimidazol-5-yl)-5-(4-chloro-3-trifluoromethyl-phenyl)-3-hydroxy-1,5-dihydro-pyrrol-2-one]: 3.37 µM.
For the compound `O=C1C(O)=C(c2ccc(O)cc2)C(c2ccccn2)N1CCCn1ccnc1` (stereo not shown) [Compound 171, 3-Hydroxy-4-(4-hydroxy-phenyl)-1-(3-imidazol-1-yl-propyl)-5-pyridin-2-yl-1,5-dihydro-pyrrol-2-one], the half-inhibitory concentration (IC50) (read-out: IC50) came out at 0.4 µM.
As to `O=C1C(O)=C(c2ccccc2)C(c2ccccc2)N1CCCn1ccnc1` (stereo not shown) [Compound 92, 3-Hydroxy-1-(3-imidazol-1-yl-propyl)-4,5-diphenyl-1,5-dihydro-pyrrol-2-one], the IC50 (read-out: IC50) turned out to be 3.1 µM.
On the same count and under the same terms, the same measure for `CC1C(c2ccccc2)=C(O)C(=O)N1CCCn1ccnc1` (stereo not shown) [Compound 90, 3-Hydroxy-1-(3-imidazol-1-yl-propyl)-5-methyl-4-phenyl-1,5-dihydro-pyrrol-2-one]: 1.3 µM; for `CC1=C(O)C(=O)N(c2ccc3[nH]cnc3c2)C1c1coc2ccc(C)cc2c1=O` (stereo not shown) [Compound 328, 1-(1H-Benzoimidazol-5-yl)-3-hydroxy-4-methyl-5-(6-methyl-4-oxo-4H-chromen-3-yl)-1,5-dihydro-pyrrol-2-one]: 0.31 µM.
The same measure, in the same setting: next, `O=C1C(O)=C(c2ccc(O)cc2)C(c2cccs2)N1CCCn1ccnc1` (stereo not shown) [Compound 173, 3-Hydroxy-4-(4-hydroxy-phenyl)-1-(3-imidazol-1-yl-propyl)-5-thiophen-2-yl-1,5-dihydro-pyrrol-2-one]: 0.04 µM; `Cc1cccc(C2C(C(=O)C3CCCCC3)=C(O)C(=O)N2c2ccc3[nH]cnc3c2)n1` (stereo not shown) [Compound 381, 1-(1H-Benzoimidazol-5-yl)-4-cyclohexanecarbonyl-3-hydroxy-5-(6-methyl-pyridin-2-yl)-1,5-dihydro-pyrrol-2-one]: 1.75 µM; `O=C(O)CCC1C(C(=O)C2CCCCC2)=C(O)C(=O)N1c1ccc2[nH]cnc2c1` (stereo not shown) [Compound 361, 3-[1-(1H-Benzoimidazol-5-yl)-3-cyclohexanecarbonyl-4-hydroxy-5-oxo-2,5-dihydro-1H-pyrrol-2-yl]-propionic acid]: 8.95 µM.
On the same count and under the same terms, the same measure for `CC1=C(O)C(=O)N(CCCn2ccnc2)C1c1ccc(CO)o1` (stereo not shown) [Compound 32, 3-Hydroxy-5-(5-hydroxymethyl-furan-2-yl)-1-(3-imidazol-1-yl-propyl)-4-methyl-1,5-dihydro-pyrrol-2-one]: 1.3 µM; for `CCCCCC1=C(O)C(=O)N(CCCn2ccnc2)C1C` (stereo not shown) [Compound 197, 3-Hydroxy-1-(3-imidazol-1-yl-propyl)-5-methyl-4-pentyl-1,5-dihydro-pyrrol-2-one]: 0.04 µM; for `CCC1=C(O)C(=O)N(CCCn2ccnc2)C1c1ccc2[nH]ccc2c1` (stereo not shown) [Compound 228, 4-Ethyl-3-hydroxy-1-(3-imidazol-1-yl-propyl)-5-(1H-indol-5-yl)-1,5-dihydro-pyrrol-2-one]: 0.04 µM.
As to `Cc1ccc(C2C(c3c[nH]c4ccccc34)=C(O)C(=O)N2CCCn2ccnc2)o1` (stereo not shown) [Compound 119, 3-Hydroxy-1-(3-imidazol-1-yl-propyl)-4-(1H-indol-3-yl)-5-(5-methyl-furan-2-yl)-1,5-dihydro-pyrrol-2-one], where the note is “read-out: IC50”, the half-maximal inhibitory concentration (IC50) was 0.4 µM.
For the compound `O=C(O)c1ccc(C2C(C(=O)C3CC3)=C(O)C(=O)N2c2ccc3[nH]cnc3c2)o1` (stereo not shown) [Compound 308, 5-[1-(1H-Benzoimidazol-5-yl)-3-cyclopropanecarbonyl-4-hydroxy-5-oxo-2,5-dihydro-1H-pyrrol-2-yl]-furan-2-carboxylic acid], where the note is “read-out: IC50”, the concentration for half-maximal inhibition (IC50) was 0.4 µM.
On the same count and under the same terms, the same measure for `O=C1C(O)=C(c2c[nH]c3ccccc23)C(c2cccc3cccnc23)N1c1ccc2[nH]cnc2c1` (stereo not shown) [Compound 281, 1-(1H-Benzoimidazol-5-yl)-3-hydroxy-4-(1H-indol-3-yl)-5-quinolin-8-yl-1,5-dihydro-pyrrol-2-one]: 5.89 µM; for `CCC1=C(O)C(=O)N(CCCn2ccnc2)C1c1c[nH]c2cc(C)ccc12` (stereo not shown) [Compound 239, 4-Ethyl-3-hydroxy-1-(3-imidazol-1-yl-propyl)-5-(6-methyl-1H-indol-3-yl)-1,5-dihydro-pyrrol-2-one]: 0.4 µM; for `CC(=O)C1=C(O)C(=O)N(c2ccc3[nH]cnc3c2)C1C1COC(C)(C)O1` (stereo not shown) [Compound 295, 4-Acetyl-1-(1H-benzoimidazol-5-yl)-5-(2,2-dimethyl-[1,3]dioxolan-4-yl)-3-hydroxy-1,5-dihydro-pyrrol-2-one]: 9.85 µM.
